We go through 24 molecules from patent publication US8815915B2, “Benzofuran-2-sulfonamides pyridine derivatives as chemokine receptor modulators” (Allergan, Inc., priority 2012, dated 2014).

The target in this assay is T1, CCR2 receptor (Homo sapiens, UniProt P41597).
T1 construct: expressed in transfected cells
Briefly: compound-induced calcium activity on FLIPR Tetra in HEK-Gqi5 cells stably expressing CCR2. The class given is cell-based. Here is the method: HEK-Gqi5 cells stably expressing CCR2 were cultured in (DMEM high glucose, 10% FBS, 1% PSA, 400 μg/ml geneticin and 50 μg/ml hygromycin. Appropriate positive control chemokines (MCP-1, MIP1A or RANTES) was used as the positive control agonist for screening compound-induced calcium activity assayed on the FLIPR^Tetra. The drug plates were prepared in 384-well microplates using the EP3 and the MultiPROBE robotic liquid handling systems. Compounds were synthesized and tested for CCR2 activity.

The mark [1] stands for this setting: CCR2 receptor, HEK-Gqi5 cells stably expressing CCR2, calcium FLIPR Tetra.
Where [2] appears, read: CCR2 receptor, HEK-Gqi5 cells stably expressing CCR2, calcium FLIPR Tetra, read-out: IC50.

Read-outs that look alike come from different tables or passages of the source.

T1 sequence (P41597 whole entry): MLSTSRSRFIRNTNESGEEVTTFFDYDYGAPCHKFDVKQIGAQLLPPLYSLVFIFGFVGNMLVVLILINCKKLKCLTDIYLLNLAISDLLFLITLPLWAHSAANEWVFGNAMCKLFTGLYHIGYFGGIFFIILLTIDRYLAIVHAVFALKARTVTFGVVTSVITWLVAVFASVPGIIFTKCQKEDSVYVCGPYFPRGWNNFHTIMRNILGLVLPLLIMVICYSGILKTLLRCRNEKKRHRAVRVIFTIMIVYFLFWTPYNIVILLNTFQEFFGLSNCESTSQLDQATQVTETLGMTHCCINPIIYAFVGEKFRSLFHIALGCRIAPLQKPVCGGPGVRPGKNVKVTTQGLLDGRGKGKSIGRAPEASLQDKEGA

Take `COC(=O)c1ccccc1CS(=O)(=O)c1ncc(Cl)cc1NS(=O)(=O)c1cc2ccccc2o1` [Compound 38, methyl 2-[({3-[(1-benzofuran-2-ylsulfonyl)amino]-5-chloropyridin-2-yl}sulfonyl)methyl]benzoate]: the “% ANTAGONISM” value under setting [1] was 97%. The IC50 (commonly the concentration that inhibits the measured activity by half) under setting [2] stood at 180 nM.

In the case of `Cc1cnc(SCc2ccccc2)c(NS(=O)(=O)c2cc3ccccc3o2)c1` [Compound 21, N-[2-(benzylsulfanyl)-5-methylpyridin-3-yl]-1-benzofuran-2-sulfonamide], the “% ANTAGONISM” value under setting [1] is reported as 80%. Under setting [2], the half-maximal inhibitory concentration (IC50) is 194 nM.

Take `O=C(O)c1ccccc1Oc1ncc(Cl)cc1NS(=O)(=O)c1cc2ccccc2o1` [Compound 26, 2-({3-[(1-benzofuran-2-ylsulfonyl)amino]-5-chloropyridin-2-yl}oxy)benzoic acid]: the “% ANTAGONISM” value under setting [1] is 97%. Moreover, under setting [2], the IC50 was found to be 157 nM.

For the molecule `Cc1ncccc1Oc1ncc(Cl)cc1NS(=O)(=O)c1cc2ccccc2o1` [Compound 24, N-{5-chloro-2-[(2-methylpyridin-3-yl)oxy]pyridin-3-yl}-1-benzofuran-2-sulfonamide], the “% ANTAGONISM” value under setting [1] is given as 90%. Moreover, under setting [2], the IC50 worked out at 34 nM.

Take `O=C(O)c1ccccc1CSc1ncccc1NS(=O)(=O)c1cc2ccccc2o1` [Compound 57, 2-[({3-[(1-benzofuran-2-ylsulfonyl)amino]pyridin-2-yl}sulfanyl)methyl]benzoic acid]: the “% ANTAGONISM” value under setting [1] came to 98%. For the same molecule, the IC50 under setting [2] amounted to 493 nM.

Turning to `Cc1ncccc1COc1ncc(Cl)cc1NS(=O)(=O)c1cc2ccccc2o1` [Compound 33, N-{5-chloro-2-[(2-methylpyridin-3-yl)methoxy]pyridin-3-yl}-1-benzofuran-2-sulfonamide], under setting [1], the “% ANTAGONISM” value is on record as 102%. Further, the IC50 under setting [2] was determined as 251 nM.

For `O=S(=O)(Nc1cc(F)cnc1SCc1ccccc1)c1cc2ccccc2o1` [Compound 15, N-[2-(benzylsulfanyl)-5-fluoropyridin-3-yl]-1-benzofuran-2-sulfonamide], the “% ANTAGONISM” value under setting [1] stood at 94%. Moreover, the IC50 under setting [2] is 125 nM.

In the case of `O=S(=O)(Nc1cc(F)cnc1[S+]([O-])Cc1ccccc1)c1cc2ccccc2o1` (stereo not drawn) [Compound 16, N-[2-(benzylsulfinyl)-5-fluoropyridin-3-yl]-1-benzofuran-2-sulfonamide], the “% ANTAGONISM” value under setting [1] worked out at 95%. Further, the IC50 under setting [2] came out at 18 nM.

With `CC(C)(C)OC(=O)Nc1cccc(CS(=O)(=O)c2ncccc2NS(=O)(=O)c2cc3ccccc3o2)c1` [Compound 13, tert-butyl {3-[({3-[(1-benzofuran-2-ylsulfonyl)amino]pyridin-2-yl}sulfonyl)methyl]phenyl}carbamate], the “% ANTAGONISM” value under setting [1] turned out to be 102%. For the same molecule, the IC50 under setting [2] was found to be 497 nM.

As to `COC(=O)c1ccccc1C[S+]([O-])c1ncc(Cl)cc1NS(=O)(=O)c1cc2ccccc2o1` (stereo not drawn) [Compound 37, methyl 2-[({3-[(1-benzofuran-2-ylsulfonyl)amino]-5-chloropyridin-2-yl}sulfinyl)methyl]benzoate], under setting [1], the “% ANTAGONISM” value turned out to be 95%. Further, the IC50 under setting [2] came to 191 nM.

Regarding `O=S(=O)(Nc1cccnc1[S+]([O-])Cc1ccccc1)c1cc2ccccc2o1` (stereo not drawn) [Compound 9, N-[2-(benzylsulfinyl)pyridin-3-yl]-1-benzofuran-2-sulfonamide], the “% ANTAGONISM” value under setting [1] was found to be 100%. In addition, under setting [2], the half-inhibitory concentration (IC50) came to 27 nM.

Regarding `O=S(=O)(Nc1cc(Cl)cnc1[S+]([O-])c1ccccc1)c1cc2ccccc2o1` (stereo not drawn) [Compound 32, N-[5-chloro-2-(phenylsulfinyl)pyridin-3-yl]-1-benzofuran-2-sulfonamide], the “% ANTAGONISM” value under setting [1] was 99%. Also, the IC50 under setting [2] was 7 nM.

Take `O=C(O)c1ccccc1[S+]([O-])c1ncc(Cl)cc1NS(=O)(=O)c1cc2ccccc2o1` (stereo not drawn) [Compound 50, 2-({3-[(1-benzofuran-2-ylsulfonyl)amino]-5-chloropyridin-2-yl}sulfinyl)benzoic acid]: the “% ANTAGONISM” value under setting [1] worked out at 5%. In addition, under setting [2], the IC50 was 1950 nM.

Regarding `Cc1cnc([S+]([O-])Cc2ccccc2)c(NS(=O)(=O)c2cc3ccccc3o2)c1` (stereo not drawn) [Compound 22, N-[2-(benzylsulfinyl)-5-methylpyridin-3-yl]-1-benzofuran-2-sulfonamide], the “% ANTAGONISM” value under setting [1] was 103%. Moreover, the IC50 under setting [2] was found to be 25 nM.

On to `O=S(=O)(Cc1ccccc1)c1ncc(F)cc1NS(=O)(=O)c1cc2ccccc2o1` [Compound 17, N-[2-(benzylsulfonyl)-5-fluoropyridin-3-yl]-1-benzofuran-2-sulfonamide], for which the “% ANTAGONISM” value under setting [1] was determined as 101%. For the same molecule, under setting [2], the IC50 is 43 nM.

For `O=C1CCN(C(=O)c2ncc(Cl)cc2NS(=O)(=O)c2cc3ccccc3o2)CC1` [Compound 28, N-{5-chloro-2-[(4-oxopiperidin-1-yl)carbonyl]pyridin-3-yl}-1-benzofuran-2-sulfonamide], the IC50 was found to be 24 nM. The “% ANTAGONISM” value under setting [1] was determined as 105%.

For the molecule `O=C(c1ccccc1)c1ncc(Cl)cc1NS(=O)(=O)c1cc2ccccc2o1` [Compound 29, N-[5-chloro-2-(phenylcarbonyl)pyridin-3-yl]-1-benzofuran-2-sulfonamide], the “% ANTAGONISM” value under setting [1] turned out to be 100%. Moreover, the half-inhibitory concentration (IC50) under setting [2] is 36 nM.

`O=S(=O)(Nc1cc(F)cnc1Sc1ccccc1)c1cc2ccccc2o1` [Compound 40, N-[5-fluoro-2-(phenylsulfanyl)pyridin-3-yl]-1-benzofuran-2-sulfonamide]: the “% ANTAGONISM” value under setting [1] turned out to be 65%. For the same molecule, the concentration for half-maximal inhibition (IC50) under setting [2] came out at 469 nM.

On to `COC(=O)c1ccccc1C[S+]([O-])c1ncccc1NS(=O)(=O)c1cc2ccccc2o1` (stereo not drawn) [Compound 58, methyl 2-[({3-[(1-benzofuran-2-ylsulfonyl)amino]pyridin-2-yl}sulfinyl)methyl]benzoate], for which, under setting [1], the “% ANTAGONISM” value stood at 102%. Moreover, the IC50 under setting [2] came out at 198 nM.

`O=S(=O)(Cc1ccccc1)c1ncc(Cl)cc1NS(=O)(=O)c1cc2ccccc2o1` [Compound 3, N-[2-(benzylsulfonyl)-5-chloropyridin-3-yl]-1-benzofuran-2-sulfonamide]: under setting [1], the “% ANTAGONISM” value stood at 90%. Moreover, the IC50 under setting [2] worked out at 19 nM.

Regarding `Nc1cccc(C[S+]([O-])c2ncc(Cl)cc2NS(=O)(=O)c2cc3ccccc3o2)c1` (stereo not drawn) [Compound 19, N-{2-[(3-aminobenzyl)sulfinyl]-5-chloropyridin-3-yl}-1-benzofuran-2-sulfonamide], the “% ANTAGONISM” value under setting [1] is listed as 97%. The IC50 under setting [2] was determined as 101 nM.

Take `O=S(=O)(Nc1cc(Cl)cnc1S(=O)(=O)c1ccccc1)c1cc2ccccc2o1` [Compound 31, N-[5-chloro-2-(phenylsulfonyl)pyridin-3-yl]-1-benzofuran-2-sulfonamide]: the “% ANTAGONISM” value under setting [1] turned out to be 105%. Under setting [2], the IC50 came to 17 nM.

For `O=C(O)c1ccccc1CS(=O)(=O)c1ncc(Cl)cc1NS(=O)(=O)c1cc2ccccc2o1` [Compound 39, 2-[({3-[(1-benzofuran-2-ylsulfonyl)amino]-5-chloropyridin-2-yl}sulfonyl)methyl]benzoic acid], the “% ANTAGONISM” value under setting [1] was found to be 32%. For the same molecule, the IC50 under setting [2] came out at 2690 nM.

As to `Nc1cccc(CS(=O)(=O)c2ncccc2NS(=O)(=O)c2cc3ccccc3o2)c1` [Compound 14, N-{2-[(3-aminobenzyl)sulfonyl]pyridin-3-yl}-1-benzofuran-2-sulfonamide], the “% ANTAGONISM” value under setting [1] is 102%. Also, the IC50 under setting [2] amounted to 71 nM.
